Assay results published in the supplement of paper PMC7840683.
± gives the standard deviation of the averaged measurements.

Test system: HepaRG
Experiment: LDH release cytotoxicity, % of total lysis control; higher = more cytotoxic
Conditions: 48 h
Outline: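 HepaRG cells from a single lot were plated on collagen I-coated 96-well plates and treated in duplicate for 48 h with eight-point half-log series of test chemicals, starting at 100 µM, in serum-free induction medium containing 0.5% DMSO. Total lysis wells were given 0.1% Triton X. LDH released into 50 µL of spent medium was measured as resorufin fluorescence with CytoTox-ONE on a Tecan Safire. Percent cytotoxicity was normalized to on-plate vehicle and total lysis controls and then averaged across duplicates.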

O=NO [Sodium nitrite]
LDH release cytotoxicity (0.03162 µM): -3.61 ± 3.5% | LDH release cytotoxicity (0.1 µM): 0.52 ± 1.1% | LDH release cytotoxicity (0.3162278 µM): -0.867 ± 0.14% | LDH release cytotoxicity (1 µM): -2.02 ± 0.5% | LDH release cytotoxicity (3.16228 µM): -1.06 ± 0.48% | LDH release cytotoxicity (10 µM): -0.549 ± 0.34% | LDH release cytotoxicity (31.6228 µM): -1.15 ± 0.46% | LDH release cytotoxicity (100 µM): 0.684 ± 0.51%

CSC(=O)c1c(C(F)F)nc(C(F)(F)F)c(C(=O)SC)c1CC(C)C [Dithiopyr]
LDH release cytotoxicity (0.0140721 µM): -1.51 ± 2.5% | LDH release cytotoxicity (0.0445 µM): -2.25 ± 0.63% | LDH release cytotoxicity (0.1407214 µM): -2.63 ± 0.43% | LDH release cytotoxicity (0.445 µM): -3.81 ± 0.56% | LDH release cytotoxicity (1.4072136 µM): -3.84 ± 0.3% | LDH release cytotoxicity (4.45 µM): -5.82 ± 2.5% | LDH release cytotoxicity (14.072136 µM): -1.76 ± 2.3% | LDH release cytotoxicity (44.5 µM): -1.31 ± 1.6%

CCOc1cccc(C2(N3CCN(c4ccccc4)CC3)CCC(C)CC2)c1 (stereo not drawn)
LDH release cytotoxicity (0.03162 µM): -1.75 ± 0.02% | LDH release cytotoxicity (0.1 µM): -2.4 ± 0.55% | LDH release cytotoxicity (0.3162278 µM): -2.68 ± 0.082% | LDH release cytotoxicity (1 µM): -2.73 ± 0.63% | LDH release cytotoxicity (3.16228 µM): -2.22 ± 0.23% | LDH release cytotoxicity (10 µM): -2.03 ± 0.69% | LDH release cytotoxicity (31.6228 µM): -1.97 ± 0.4% | LDH release cytotoxicity (100 µM): -1.12 ± 0.82%

CCCN(CCC)N=O [N-Nitrosodi-n-propylamine]
LDH release cytotoxicity (0.03162 µM): 0.0788 ± 0.46% | LDH release cytotoxicity (0.1 µM): -0.576 ± 0.82% | LDH release cytotoxicity (0.3162278 µM): -1.11 ± 1.1% | LDH release cytotoxicity (1 µM): -2.21 ± 1.1% | LDH release cytotoxicity (3.16228 µM): -1.474 ± 0.0032% | LDH release cytotoxicity (10 µM): -1.09 ± 0.64% | LDH release cytotoxicity (31.6228 µM): -1.53 ± 0.55% | LDH release cytotoxicity (100 µM): 0.635 ± 0.017%

CCCCCCCCCCCCc1cccc(S(=O)(=O)O)c1 [Dodecylbenzene sulfonate triethanolamine(1:1)]
LDH release cytotoxicity (0.02846 µM): -1.49 ± 0.8% | LDH release cytotoxicity (0.09 µM): -0.848 ± 1.3% | LDH release cytotoxicity (0.284605 µM): -1.53 ± 0.58% | LDH release cytotoxicity (0.9 µM): -1.22 ± 0.78% | LDH release cytotoxicity (2.84605 µM): -0.852 ± 0.19% | LDH release cytotoxicity (9 µM): -1.11 ± 0.016% | LDH release cytotoxicity (28.4605 µM): -0.984 ± 0.56% | LDH release cytotoxicity (90 µM): 5.69 ± 0.45%

COC(=O)c1ccccc1N [Methyl 2-aminobenzoate]
LDH release cytotoxicity (0.03162 µM): -1.17 ± 0.31% | LDH release cytotoxicity (0.1 µM): 0.00334 ± 0.73% | LDH release cytotoxicity (0.3162278 µM): 0.277 ± 0.2% | LDH release cytotoxicity (1 µM): -0.0267 ± 0.46% | LDH release cytotoxicity (3.16228 µM): 0.248 ± 0.12% | LDH release cytotoxicity (10 µM): 0.495 ± 0.94% | LDH release cytotoxicity (31.6228 µM): 0.0802 ± 0.54% | LDH release cytotoxicity (100 µM): 1.28 ± 0.41%

COc1ccc(O)c(C(C)(C)C)c1 [2-tert-Butyl-4-methoxyphenol]
LDH release cytotoxicity (0.03162 µM): -1.55 ± 0.4% | LDH release cytotoxicity (0.1 µM): -1.18 ± 0.12% | LDH release cytotoxicity (0.3162278 µM): 0.0233 ± 0.91% | LDH release cytotoxicity (1 µM): 0.0291 ± 1.1% | LDH release cytotoxicity (3.16228 µM): 0.0384 ± 1.3% | LDH release cytotoxicity (10 µM): 0.94 ± 1.4% | LDH release cytotoxicity (31.6228 µM): 1.15 ± 1.3% | LDH release cytotoxicity (100 µM): 2.22 ± 1.8%

CN(C)CCCN(C)CCCN(C)C [2,6,10-Trimethyl-2,6,10-triazaundecane]
LDH release cytotoxicity (0.03162 µM): -1.25 ± 0.61% | LDH release cytotoxicity (0.1 µM): -1.63 ± 0.4% | LDH release cytotoxicity (0.3162278 µM): -2.17 ± 0.18% | LDH release cytotoxicity (1 µM): -1.73 ± 0.24% | LDH release cytotoxicity (3.16228 µM): -1.82 ± 0.067% | LDH release cytotoxicity (10 µM): -1.78 ± 0.98% | LDH release cytotoxicity (31.6228 µM): -0.82 ± 0.7% | LDH release cytotoxicity (100 µM): -0.216 ± 0.84%

CCNc1nc(Cl)nc(NC(C)(C)C#N)n1 [Cyanazine]
LDH release cytotoxicity (0.03162 µM): -0.628 ± 0.49% | LDH release cytotoxicity (0.1 µM): -0.139 ± 1.2% | LDH release cytotoxicity (0.3162278 µM): -0.711 ± 0.36% | LDH release cytotoxicity (1 µM): -1.27 ± 0.13% | LDH release cytotoxicity (3.16228 µM): -0.482 ± 0.15% | LDH release cytotoxicity (10 µM): -0.431 ± 0.068% | LDH release cytotoxicity (31.6228 µM): -0.343 ± 0.24% | LDH release cytotoxicity (100 µM): 0.714 ± 0.2%

ClC(Cl)=C(c1ccc(Cl)cc1)c1ccc(Cl)cc1 [p,p'-DDE]
LDH release cytotoxicity (0.03162 µM): -0.311 ± 0.4% | LDH release cytotoxicity (0.1 µM): -0.017 ± 0.96% | LDH release cytotoxicity (0.3162278 µM): -0.636 ± 0.036% | LDH release cytotoxicity (1 µM): -0.675 ± 0.2% | LDH release cytotoxicity (3.16228 µM): 0.0542 ± 0.64% | LDH release cytotoxicity (10 µM): -0.0981 ± 0.32% | LDH release cytotoxicity (31.6228 µM): 0.0466 ± 1% | LDH release cytotoxicity (100 µM): 0.471 ± 0.17%

Cc1ccc(N)cc1 [4-Methylaniline]
LDH release cytotoxicity (0.03162 µM): -1.74 ± 0.54% | LDH release cytotoxicity (0.1 µM): -1.26 ± 0.25% | LDH release cytotoxicity (0.3162278 µM): -1.71 ± 0.048% | LDH release cytotoxicity (1 µM): -2.15 ± 0.07% | LDH release cytotoxicity (3.16228 µM): -1.82 ± 0.86% | LDH release cytotoxicity (10 µM): -1.12 ± 0.11% | LDH release cytotoxicity (31.6228 µM): -1.47 ± 0.87% | LDH release cytotoxicity (100 µM): 0.2 ± 0.81%

CC(C)(c1ccccc1)c1ccc(O)c(C(C)(C)c2ccccc2)c1 [2,4-Bis(1-methyl-1-phenylethyl)phenol]
LDH release cytotoxicity (0.03162 µM): -0.358 ± 0.3% | LDH release cytotoxicity (0.1 µM): -1.13 ± 0.14% | LDH release cytotoxicity (0.3162278 µM): -0.577 ± 0.043% | LDH release cytotoxicity (1 µM): -1.2 ± 1.5% | LDH release cytotoxicity (3.16228 µM): -1.41 ± 0.08% | LDH release cytotoxicity (10 µM): -0.479 ± 0.49% | LDH release cytotoxicity (31.6228 µM): -0.0613 ± 0.39% | LDH release cytotoxicity (100 µM): 0.487 ± 0.24%

CN1CCCC1=O [N-Methyl-2-pyrrolidone]
LDH release cytotoxicity (0.03162 µM): -2.92 ± 1.9% | LDH release cytotoxicity (0.1 µM): -3.16 ± 0.5% | LDH release cytotoxicity (0.3162278 µM): -2.9 ± 0.41% | LDH release cytotoxicity (1 µM): -2.75 ± 0.92% | LDH release cytotoxicity (3.16228 µM): -1.74 ± 1.5% | LDH release cytotoxicity (10 µM): -1.93 ± 0.75% | LDH release cytotoxicity (31.6228 µM): -2.93 ± 0.35% | LDH release cytotoxicity (100 µM): 7.04 ± 0.053%

COc1cc(C(C)C)c2c(c1)S(=O)(=O)N(COc1cc(=O)n3cccc(OCCN4CCCCC4)c3n1)C2=O
LDH release cytotoxicity (0.0079057 µM): 0.0307 ± 1.5% | LDH release cytotoxicity (0.025 µM): 0.0794 ± 0.093% | LDH release cytotoxicity (0.0790569 µM): 0.357 ± 0.16% | LDH release cytotoxicity (0.25 µM): -0.592 ± 0.34% | LDH release cytotoxicity (0.790569 µM): -0.444 ± 0.69% | LDH release cytotoxicity (2.5 µM): -0.335 ± 0.28% | LDH release cytotoxicity (7.90569 µM): -0.231 ± 0.07% | LDH release cytotoxicity (25 µM): 14.2 ± 0.87%

Cc1ccc(N(C)C)cc1 [N,N,4-Trimethylaniline]
LDH release cytotoxicity (0.03162 µM): -1.35 ± 0.18% | LDH release cytotoxicity (0.1 µM): -2.34 ± 0.1% | LDH release cytotoxicity (0.3162278 µM): -1.31 ± 0.2% | LDH release cytotoxicity (1 µM): -1.01 ± 0.47% | LDH release cytotoxicity (3.16228 µM): -1.56 ± 1.1% | LDH release cytotoxicity (10 µM): -0.631 ± 0.84% | LDH release cytotoxicity (31.6228 µM): 0.0145 ± 0.88% | LDH release cytotoxicity (100 µM): 1.9 ± 0.59%

CN1C(=O)CCC1c1cccnc1 (stereo not drawn) [Cotinine]
LDH release cytotoxicity (0.03162 µM): -0.994 ± 0.49% | LDH release cytotoxicity (0.1 µM): -2.34 ± 0.73% | LDH release cytotoxicity (0.3162278 µM): -0.492 ± 0.14% | LDH release cytotoxicity (1 µM): -1.31 ± 0.42% | LDH release cytotoxicity (3.16228 µM): -0.499 ± 0.41% | LDH release cytotoxicity (10 µM): -0.978 ± 0.13% | LDH release cytotoxicity (31.6228 µM): -0.74 ± 0.22% | LDH release cytotoxicity (100 µM): 0.597 ± 0.61%

OCCOCCO [Diethylene glycol]
LDH release cytotoxicity (0.03162 µM): -0.757 ± 0.022% | LDH release cytotoxicity (0.1 µM): -1.02 ± 0.94% | LDH release cytotoxicity (0.3162278 µM): -1.03 ± 0.3% | LDH release cytotoxicity (1 µM): -0.601 ± 0.41% | LDH release cytotoxicity (3.16228 µM): -1.16 ± 0.75% | LDH release cytotoxicity (10 µM): -0.563 ± 0.71% | LDH release cytotoxicity (31.6228 µM): -0.731 ± 0.0084% | LDH release cytotoxicity (100 µM): 0.422 ± 0.8%

CC1COC(Cn2cncn2)(c2ccc(Oc3ccc(Cl)cc3)cc2Cl)O1 (stereo not drawn) [Difenoconazole]
LDH release cytotoxicity (0.03162 µM): -1.39 ± 1.3% | LDH release cytotoxicity (0.1 µM): -1.4 ± 0.88% | LDH release cytotoxicity (0.3162278 µM): -1.37 ± 0.096% | LDH release cytotoxicity (1 µM): -1.47 ± 0.12% | LDH release cytotoxicity (3.16228 µM): -0.57 ± 1.1% | LDH release cytotoxicity (10 µM): -0.701 ± 0.24% | LDH release cytotoxicity (31.6228 µM): -1.41 ± 0.25% | LDH release cytotoxicity (100 µM): -0.14 ± 0.82%

CC(C)NC(=O)N1CC(=O)N(c2cc(Cl)cc(Cl)c2)C1=O [Iprodione]
LDH release cytotoxicity (0.03162 µM): -0.45 ± 0.15% | LDH release cytotoxicity (0.1 µM): -1.34 ± 0.23% | LDH release cytotoxicity (0.3162278 µM): -0.949 ± 0.21% | LDH release cytotoxicity (1 µM): -1.27 ± 0.32% | LDH release cytotoxicity (3.16228 µM): -1.29 ± 0.11% | LDH release cytotoxicity (10 µM): -0.662 ± 0.57% | LDH release cytotoxicity (31.6228 µM): 1.78 ± 0.13% | LDH release cytotoxicity (100 µM): 4.73 ± 0.47%

CC(C)C1(C)N=C(c2nc3ccccc3cc2C(=O)O)NC1=O (stereo not drawn) [Imazaquin]
LDH release cytotoxicity (0.03162 µM): -3.4 ± 0.27% | LDH release cytotoxicity (0.1 µM): -3.18 ± 1.6% | LDH release cytotoxicity (0.3162278 µM): -1.28 ± 0.9% | LDH release cytotoxicity (1 µM): -2.88 ± 1.6% | LDH release cytotoxicity (3.16228 µM): -0.995 ± 1% | LDH release cytotoxicity (10 µM): -0.807 ± 1.1% | LDH release cytotoxicity (31.6228 µM): -0.68 ± 1% | LDH release cytotoxicity (100 µM): 2.17 ± 0.069%

N=C(N)c1ccc(OCCCCCOc2ccc(C(=N)N)cc2)cc1 [Pentamidine isethionate]
LDH release cytotoxicity (0.0276699 µM): -1.83 ± 0.92% | LDH release cytotoxicity (0.0875 µM): -2.81 ± 0.69% | LDH release cytotoxicity (0.276699 µM): -2.72 ± 0.49% | LDH release cytotoxicity (0.875 µM): -3.54 ± 0.15% | LDH release cytotoxicity (2.76699 µM): -2.52 ± 0.068% | LDH release cytotoxicity (8.75 µM): 19 ± 1.4% | LDH release cytotoxicity (27.6699 µM): 68.9 ± 1% | LDH release cytotoxicity (87.5 µM): 73.7 ± 2%
